2 molecules from ChEMBL document CHEMBL1811878, “Heteroatom-substituted analogues of orphan nuclear receptor small heterodimer partner ligand and apoptosis inducer (E)-4-[3-(1-Adamantyl)-4-hydroxyphenyl]-3-chlorocinnamic acid” (J Med Chem, 2011) can be followed below.

As a reminder, the IC50 is the concentration that inhibits the measured activity by half. Low readings indicate greater potency in that assay, high ones weaker potency in that assay.

Molecules are shown by their SMILES.

The target in test [1] is T1, Retinoic acid receptor beta (Homo sapiens) (UniProt P10826).
T1 sequence (whole entry): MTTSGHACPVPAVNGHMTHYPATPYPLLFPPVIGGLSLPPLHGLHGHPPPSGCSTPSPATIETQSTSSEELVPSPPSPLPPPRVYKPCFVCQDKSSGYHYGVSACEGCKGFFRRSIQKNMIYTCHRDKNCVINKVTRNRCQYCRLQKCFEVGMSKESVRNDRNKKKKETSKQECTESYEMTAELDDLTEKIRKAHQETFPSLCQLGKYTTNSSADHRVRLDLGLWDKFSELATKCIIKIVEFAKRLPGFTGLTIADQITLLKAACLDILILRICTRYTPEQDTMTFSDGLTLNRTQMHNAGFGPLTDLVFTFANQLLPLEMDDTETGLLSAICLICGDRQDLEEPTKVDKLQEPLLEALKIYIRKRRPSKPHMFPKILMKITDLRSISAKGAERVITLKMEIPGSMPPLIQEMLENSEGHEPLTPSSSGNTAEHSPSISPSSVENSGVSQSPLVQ
The experiment in a line: Transcriptional activation of human RARbeta at 1 uM by (TREpal)2-tk-CAT reporter gene assay. On the technique in general: A reporter such as luciferase makes a cellular process visible.

Test [2] is described as follows: Induction of apoptosis in retinoid-resistant p53 null human HL60R cells assessed as DNA fragmentation at 0.1 uM after 24 hrs by acridine orange staining method. Type of test: functional.
For test [3], the system named is OVCAR-3. Briefly: Antiproliferative activity against human OVCAR3 cell. The test is classed as functional, cell-based.
Test [4] deals with T2, Retinoic acid receptor gamma (Homo sapiens) (UniProt P13631).
T2 sequence (whole entry): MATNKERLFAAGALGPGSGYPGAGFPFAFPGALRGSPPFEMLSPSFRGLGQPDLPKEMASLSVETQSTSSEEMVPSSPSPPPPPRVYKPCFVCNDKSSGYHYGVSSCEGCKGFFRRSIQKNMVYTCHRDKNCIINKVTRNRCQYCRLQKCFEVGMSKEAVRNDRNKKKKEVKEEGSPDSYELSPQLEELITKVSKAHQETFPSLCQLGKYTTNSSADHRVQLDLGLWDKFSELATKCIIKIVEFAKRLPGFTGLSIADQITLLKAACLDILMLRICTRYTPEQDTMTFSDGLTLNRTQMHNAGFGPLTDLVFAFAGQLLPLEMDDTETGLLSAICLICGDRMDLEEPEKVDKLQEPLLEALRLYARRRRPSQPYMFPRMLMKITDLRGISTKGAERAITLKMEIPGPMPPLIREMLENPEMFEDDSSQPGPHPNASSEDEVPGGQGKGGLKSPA
Briefly: Transcriptional activation of human RARgamma at 0.1 uM by luciferase reporter gene assay relative to control.

The target in test [5] is T1, Retinoic acid receptor beta (Homo sapiens). Briefly: Transcriptional activation of human RARbeta at 0.1 uM by luciferase reporter gene assay relative to control.
Test [6] has as its target T3, Retinoic acid receptor alpha (Homo sapiens) (UniProt P10276).
T3 sequence (whole entry): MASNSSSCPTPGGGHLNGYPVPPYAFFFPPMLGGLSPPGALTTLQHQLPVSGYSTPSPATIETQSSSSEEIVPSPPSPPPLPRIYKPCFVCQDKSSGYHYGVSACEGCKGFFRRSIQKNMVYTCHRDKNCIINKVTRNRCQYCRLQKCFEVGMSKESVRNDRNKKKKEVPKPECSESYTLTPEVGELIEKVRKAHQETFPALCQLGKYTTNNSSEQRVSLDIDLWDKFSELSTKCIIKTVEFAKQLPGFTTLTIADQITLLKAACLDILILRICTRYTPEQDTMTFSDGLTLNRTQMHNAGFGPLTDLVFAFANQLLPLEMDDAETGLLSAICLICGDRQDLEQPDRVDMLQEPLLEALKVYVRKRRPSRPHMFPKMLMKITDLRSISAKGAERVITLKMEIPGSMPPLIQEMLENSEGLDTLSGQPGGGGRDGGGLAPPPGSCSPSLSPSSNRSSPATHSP
The experiment in a line: Transcriptional activation of human RARalpha at 1 uM by (TREpal)2-tk-CAT reporter gene assay.

Test [7] addresses T2, Retinoic acid receptor gamma (Homo sapiens). The experiment in a line: Transcriptional activation of human RARgamma at 1 uM by (TREpal)2-tk-CAT reporter gene assay.
The target in test [8] is T3, Retinoic acid receptor alpha (Homo sapiens). The experiment in a line: Transcriptional activation of human RARalpha at 0.1 uM by luciferase reporter gene assay relative to control.
Test [9] in a line: Induction of apoptosis in retinoid-resistant p53 null human HL60R cells assessed as DNA fragmentation at 1 uM after 24 hrs by acridine orange staining method. The test is classed as functional.

On to `O=C(O)c1ccc2cc(-c3ccc(O)c(C45CC6CC(CC(C6)C4)C5)c3)ccc2c1` [O-DEMETHYLATED ADAPALENE], for which the Activity in test [1] was 78%; in [2], 73%; in [6], 21%; in [7], 88%; in test [9], 98%. Further, it took 130 nM to reach half-maximal inhibition in [3] (IC50). For the same molecule, the fold change (FC) was found to be 50 in [4], 20 in test [5] and 10 in [8].

For the molecule `O=C(O)/C=C/c1ccc(-c2ccc(O)c(C34CC5CC(CC(C5)C3)C4)c2)cc1` [ADAROTENE], the Activity stood at 85% in [1]; 90% in test [2]; 8% in test [6]; 103% in test [7]; 98% in test [9]. Moreover, the figures for the fold change (FC) in test [4], in test [5] and in test [8] were 25, 6 and 6, respectively.
